Measured values as given in ChEMBL document CHEMBL1201862, “PubChem BioAssay data set” (2004).
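Tested at 5 concentrations; 48 h exposure; 96-well plates; endpoints linearly interpolated, else capped at highest concentration. GI50 is the concentration that inhibits growth by half.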 Calls of active or inactive are those of the source. Cut-off read from the data, not from the text of the source: active = GI50 up to about 1.1 µM and inactive = higher.

How the values were obtained:
Test in all cases: growth of human tumour cells (NCI), 48 h
[1] = tested on: BT-549
[2] = tested on: CAKI-1
[3] = tested on: CCRF-CEM
[4] = tested on: HCT-116
[5] = tested on: HOP-92
[6] = tested on: LOX IMVI
[7] = tested on: M14
[8] = tested on: MCF7
[9] = tested on: NCI-H226
[10] = tested on: NCI/ADR-RES
[11] = tested on: OVCAR-3
[12] = tested on: OVCAR-4
[13] = tested on: OVCAR-5
[14] = tested on: OVCAR-8
[15] = tested on: SK-MEL-5
[16] = tested on: SNB-75
[17] = tested on: U-251
[18] = tested on: UACC-257
[19] = tested on: UO-31

Measured: GI50

N#Cc1c(-c2ccccc2)c(/N=N/c2ccc(F)cc2)c(=O)n2c1[nH]c1ccccc12
inactive: [1] 8.85 µM | [2] 3.92 µM | [3] 1.26 µM | [4] 2.03 µM | [5] 2.18 µM | [6] 9.35 µM | [7] 3.54 µM | [8] 4.51 µM | [9] 7.28 µM | [10] 3 µM | [11] 2.14 µM | [12] 4.09 µM | [13] 5.94 µM | [14] 2.34 µM | [15] 1.53 µM | [16] 13.2 µM | [17] 3.66 µM | [18] 3.21 µM | [19] 2.97 µM

NS(=O)(=O)c1ccc(NNC(=O)c2cccc3c(=O)c4ccccc4[nH]c23)cc1
inactive: [1] 62.4 µM | [2] > 100 µM | [3] 46.1 µM | [4] 52.1 µM | [5] 34.4 µM | [6] 30.1 µM | [7] > 100 µM | [8] 34 µM | [9] > 100 µM | [10] > 100 µM | [11] 56.9 µM | [12] 61.8 µM | [13] > 100 µM | [14] > 100 µM | [15] 34 µM | [16] > 100 µM | [17] 55.1 µM | [18] > 100 µM | [19] 45.1 µM

CC(=O)O[C@@H]1[C@H]2O[C@H]2[C@H]2O[C@@]2(COC(=O)c2ccccc2)[C@H]1OC(C)=O
inactive: [1] > 100 µM | [2] 99.1 µM | [3] > 100 µM | [4] > 100 µM | [5] > 100 µM | [6] > 100 µM | [7] > 100 µM | [8] > 100 µM | [9] > 100 µM | [10] > 100 µM | [11] > 100 µM | [12] > 100 µM | [13] > 100 µM | [14] 71.9 µM | [15] > 100 µM | [16] > 100 µM | [17] > 100 µM | [18] > 100 µM | [19] > 100 µM

COc1cc(-c2coc3c(OC)c(OC4OC(CO)C(O)C(O)C4O)c(OC)cc3c2=O)cc(OC)c1C (configuration not stated)
inactive: [1] 4.04 µM | [2] 14.7 µM | [3] 3.75 µM | [4] 1.69 µM | [5] 17.7 µM | [6] 3.37 µM | [7] 4.45 µM | [8] 3.66 µM | [9] 25.7 µM | [10] 7.36 µM | [11] 7.26 µM | [12] 13.1 µM | [13] 14.2 µM | [14] 3.38 µM | [15] 12.1 µM | [16] 6.22 µM | [17] 3.7 µM | [18] 14.2 µM | [19] 4.42 µM

COc1ccccc1/N=C1\SCCN1C(=S)Nc1ccc(S(=O)(=O)/N=C/N(C)C)cc1
inactive: [1] 21.9 µM | [2] 33.7 µM | [3] 38.3 µM | [4] 41.7 µM | [5] 27.9 µM | [6] 29.9 µM | [7] 51.5 µM | [8] 26.1 µM | [9] > 100 µM | [10] 45 µM | [11] 44 µM | [12] 43.2 µM | [13] 87.5 µM | [14] 35.2 µM | [15] 15.9 µM | [16] 29.6 µM | [17] > 100 µM | [18] 36.1 µM | [19] 38.5 µM

O=C1NCC2(CCN(Cc3ccccc3)CC2)N1
inactive: [1] > 100 µM | [2] > 100 µM | [3] > 100 µM | [4] > 100 µM | [5] > 100 µM | [6] > 100 µM | [7] > 100 µM | [8] > 100 µM | [9] > 100 µM | [10] > 100 µM | [11] > 100 µM | [12] > 100 µM | [13] > 100 µM | [14] > 100 µM | [15] > 100 µM | [16] > 100 µM | [17] > 100 µM | [18] > 100 µM | [19] > 100 µM

C=C(C)[C@@H]1CCC2=C[C@H](C/C(C)=C\C3=CC(C)=C(O3)[C@H]1O)OC2=O
inactive: [1] > 100 µM | [2] > 100 µM | [3] > 100 µM | [5] 56.4 µM | [6] > 100 µM | [7] > 100 µM | [8] 71.1 µM | [9] 36.1 µM | [10] > 100 µM | [11] > 100 µM | [12] 60 µM | [13] > 100 µM | [14] 73.8 µM | [15] > 100 µM | [16] > 100 µM | [17] 49.8 µM | [18] > 100 µM | [19] > 100 µM
